Assay results reported in ChEMBL document CHEMBL5576135, “Discovery of Indolo[3,2-c]isoquinoline Derivatives as Novel Top1/2 Dual Inhibitors with Orally Efficacious Antitumor Activity and Low Toxicity” (J Med Chem, 2024).
Active and inactive are the calls of the source. The rule behind the calls is not given here.

Each molecule was assayed on HCT-116 (assay: Antiproliferative activity against human HCT-116 cells assessed as inhibition of cell growth incubated for 96 hrs by MTT based ELISA). Conditions: HCT-116, 96 h.
Format: functional

Structure (SMILES) | IC50 [µM]
O=C(CCCn1c2cc3c(cc2c2[nH]c(=O)c4ccccc4c21)OCO3)NO | 4.08
COc1ccc2c(c1)c1nc(Cl)c3ccccc3c1n2CCCN1CC[C@@H](O)C1 | > 10
COc1ccc2c(c1)c1nc(Cl)c3ccccc3c1n2CCCn1cnc(C)c1 | > 10
COc1ccc2c(c1)c1nc(Cl)c3ccccc3c1n2CCCn1cc(C)nc1C | > 10
COc1ccc2c(c1)c1nc(Cl)c3ccccc3c1n2CCCN1CCC[C@@H]1CO | > 10
COc1ccc2c(c1)c1nc(Cl)c3ccccc3c1n2CCCN1CCC[C@@H](O)C1 | > 10

Molecules with a lower IC50, results first:

IC50 [µM] | Structure (SMILES)
2.14 | CC(C)Oc1ccc2c(c1)c1ncc3ccccc3c1n2CCCC(=O)NO
1.17 | COc1ccc2c(c1)c1ncc3ccccc3c1n2CCCN1CCN(C)CC1
2.7 | COc1ccc2c3nc(Cl)c4ccccc4c3n(CCCC(=O)NO)c2c1

What follows are molecules tested on MDA-MB-231 (assay: Antiproliferative activity against human MDA-MB-231 cells assessed as inhibition of cell growth incubated for 96 hrs by MTT based ELISA). Conditions: MDA-MB-231, 96 h.
Format: functional

Structure (SMILES) | IC50 [µM]
O=C(CCCn1c2cc3c(cc2c2[nH]c(=O)c4ccccc4c21)OCO3)NO | 4.88
COc1ccc2c(c1)c1nc(Cl)c3ccccc3c1n2CCCN1CC[C@@H](O)C1 | > 10
COc1ccc2c(c1)c1nc(Cl)c3ccccc3c1n2CCCn1cnc(C)c1 | > 10
COc1ccc2c(c1)c1nc(Cl)c3ccccc3c1n2CCCn1cc(C)nc1C | > 10
COc1ccc2c(c1)c1nc(Cl)c3ccccc3c1n2CCCN1CCC[C@@H]1CO | > 10
COc1ccc2c(c1)c1nc(Cl)c3ccccc3c1n2CCCN1CCC[C@@H](O)C1 | > 10

The next lines start with the values.

IC50 [µM] | Structure (SMILES)
1.78 | CC(C)Oc1ccc2c(c1)c1ncc3ccccc3c1n2CCCC(=O)NO
1.68 | COc1ccc2c(c1)c1ncc3ccccc3c1n2CCCN1CCN(C)CC1
3.06 | COc1ccc2c3nc(Cl)c4ccccc4c3n(CCCC(=O)NO)c2c1

What follows are molecules tested on Huh-7 (assay: Antiproliferative activity against human Huh-7 cells assessed as inhibition of cell growth incubated for 96 hrs by MTT based ELISA). Conditions: Huh-7, 96 h.
Format: functional

Structure (SMILES) | IC50 [µM]
O=C(CCCn1c2cc3c(cc2c2[nH]c(=O)c4ccccc4c21)OCO3)NO | > 10
COc1ccc2c(c1)c1nc(Cl)c3ccccc3c1n2CCCN1CC[C@@H](O)C1 | > 10
COc1ccc2c(c1)c1nc(Cl)c3ccccc3c1n2CCCn1cnc(C)c1 | > 10
COc1ccc2c(c1)c1nc(Cl)c3ccccc3c1n2CCCn1cc(C)nc1C | > 10
COc1ccc2c(c1)c1nc(Cl)c3ccccc3c1n2CCCN1CCC[C@@H]1CO | > 10
COc1ccc2c(c1)c1nc(Cl)c3ccccc3c1n2CCCN1CCC[C@@H](O)C1 | > 10

Now from value to molecule:

IC50 [µM] | Structure (SMILES)
4.43 | CC(C)Oc1ccc2c(c1)c1ncc3ccccc3c1n2CCCC(=O)NO
2.24 | COc1ccc2c(c1)c1ncc3ccccc3c1n2CCCN1CCN(C)CC1
> 10 | COc1ccc2c3nc(Cl)c4ccccc4c3n(CCCC(=O)NO)c2c1

The molecules below were run against T1, DNA topoisomerase 1 (Homo sapiens) (UniProt P11387) (assay: Inhibition of Topoisomerase I (unknown origin) using pBR322 DNA as substrate at 50 uM incubated for 15 mins by EtBr staining based agarose gel electrophoresis method). Conditions: not given.
T1 sequence (whole entry): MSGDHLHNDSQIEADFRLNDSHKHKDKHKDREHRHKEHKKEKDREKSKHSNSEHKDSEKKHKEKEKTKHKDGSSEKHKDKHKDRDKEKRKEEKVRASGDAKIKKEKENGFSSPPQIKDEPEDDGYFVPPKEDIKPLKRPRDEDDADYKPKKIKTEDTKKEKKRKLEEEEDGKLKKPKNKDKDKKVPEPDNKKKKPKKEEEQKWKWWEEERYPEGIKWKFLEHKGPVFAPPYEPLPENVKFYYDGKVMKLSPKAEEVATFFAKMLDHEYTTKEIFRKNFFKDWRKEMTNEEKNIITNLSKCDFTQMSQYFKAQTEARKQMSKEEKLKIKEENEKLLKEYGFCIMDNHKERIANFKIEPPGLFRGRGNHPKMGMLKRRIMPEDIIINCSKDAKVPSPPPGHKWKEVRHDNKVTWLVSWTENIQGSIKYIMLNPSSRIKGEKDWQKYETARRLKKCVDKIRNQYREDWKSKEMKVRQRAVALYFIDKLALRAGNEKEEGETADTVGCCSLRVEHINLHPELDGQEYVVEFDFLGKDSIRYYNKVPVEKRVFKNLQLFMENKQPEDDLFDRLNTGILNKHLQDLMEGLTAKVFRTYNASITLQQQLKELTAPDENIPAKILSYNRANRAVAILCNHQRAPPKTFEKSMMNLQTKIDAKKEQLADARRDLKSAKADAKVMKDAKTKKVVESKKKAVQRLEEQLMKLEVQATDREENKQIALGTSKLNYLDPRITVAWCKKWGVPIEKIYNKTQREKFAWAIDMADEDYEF

inhibition | Structure (SMILES)
Active | O=C(CCCn1c2cc3c(cc2c2[nH]c(=O)c4ccccc4c21)OCO3)NO
inactive | COc1ccc2c(c1)c1ncc3ccccc3c1n2CCCN1CCN(C)CC1

The molecules below were run against DNA topoisomerase 2-alpha (Homo sapiens) (UniProt P11388) (assay: Inhibition of Topoisomerase 2 (unknown origin) using pBR322 DNA as substrate at 100 uM incubated for 15 mins by EtBr staining based agarose gel electrophoresis method relative to control). Conditions: not given.
Sequence of DNA topoisomerase 2-alpha (Homo sapiens) (P11388 whole entry): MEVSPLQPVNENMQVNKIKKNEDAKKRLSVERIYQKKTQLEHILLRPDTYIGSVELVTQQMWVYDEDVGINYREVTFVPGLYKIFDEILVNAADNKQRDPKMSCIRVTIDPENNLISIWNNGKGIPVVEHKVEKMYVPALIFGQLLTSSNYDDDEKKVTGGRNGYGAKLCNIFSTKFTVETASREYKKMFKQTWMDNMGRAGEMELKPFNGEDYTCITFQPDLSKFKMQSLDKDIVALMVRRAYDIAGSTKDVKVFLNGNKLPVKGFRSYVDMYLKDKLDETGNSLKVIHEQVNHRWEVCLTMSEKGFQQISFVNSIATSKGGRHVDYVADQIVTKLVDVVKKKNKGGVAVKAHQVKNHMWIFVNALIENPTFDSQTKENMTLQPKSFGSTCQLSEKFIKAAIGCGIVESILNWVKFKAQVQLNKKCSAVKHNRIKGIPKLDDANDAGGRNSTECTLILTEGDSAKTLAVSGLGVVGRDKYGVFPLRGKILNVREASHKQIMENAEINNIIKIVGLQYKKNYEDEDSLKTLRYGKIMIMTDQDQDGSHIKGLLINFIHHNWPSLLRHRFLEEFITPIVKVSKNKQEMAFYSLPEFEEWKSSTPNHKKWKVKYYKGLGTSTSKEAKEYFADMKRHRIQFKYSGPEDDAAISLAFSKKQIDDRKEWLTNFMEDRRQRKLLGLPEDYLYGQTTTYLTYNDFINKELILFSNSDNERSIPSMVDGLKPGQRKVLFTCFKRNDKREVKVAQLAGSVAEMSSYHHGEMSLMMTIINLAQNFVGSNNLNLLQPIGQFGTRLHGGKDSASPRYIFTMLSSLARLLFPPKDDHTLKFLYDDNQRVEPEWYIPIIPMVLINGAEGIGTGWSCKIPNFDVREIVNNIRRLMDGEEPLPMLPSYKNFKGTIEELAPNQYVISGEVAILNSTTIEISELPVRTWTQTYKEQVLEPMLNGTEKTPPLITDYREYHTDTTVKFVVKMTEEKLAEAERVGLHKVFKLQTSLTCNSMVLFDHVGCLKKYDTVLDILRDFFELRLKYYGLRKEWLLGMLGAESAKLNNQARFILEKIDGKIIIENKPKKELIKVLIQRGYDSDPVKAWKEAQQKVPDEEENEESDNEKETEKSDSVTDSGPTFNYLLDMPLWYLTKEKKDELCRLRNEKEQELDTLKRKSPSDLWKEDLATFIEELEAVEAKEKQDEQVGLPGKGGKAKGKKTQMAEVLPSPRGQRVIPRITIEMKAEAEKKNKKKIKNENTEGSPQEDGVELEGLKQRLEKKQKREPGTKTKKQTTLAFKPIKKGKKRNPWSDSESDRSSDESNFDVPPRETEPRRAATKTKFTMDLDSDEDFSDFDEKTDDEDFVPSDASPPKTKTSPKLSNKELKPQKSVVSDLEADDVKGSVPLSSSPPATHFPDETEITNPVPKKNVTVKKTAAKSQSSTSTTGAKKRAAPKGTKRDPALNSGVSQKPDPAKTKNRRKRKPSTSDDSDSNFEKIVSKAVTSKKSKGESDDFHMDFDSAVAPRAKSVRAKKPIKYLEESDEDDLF

inhibition | Structure (SMILES)
> 95% | O=C(CCCn1c2cc3c(cc2c2[nH]c(=O)c4ccccc4c21)OCO3)NO
inactive | COc1ccc2c(c1)c1ncc3ccccc3c1n2CCCN1CCN(C)CC1

The molecules below were run against DNA topoisomerase 2-alpha (Homo sapiens) (UniProt P11388) (assay: Inhibition of Topoisomerase 2 (unknown origin) using pBR322 DNA as substrate at 50 uM incubated for 15 mins by EtBr staining based agarose gel electrophoresis method). Conditions: not given.

inhibition | Structure (SMILES)
Active | O=C(CCCn1c2cc3c(cc2c2[nH]c(=O)c4ccccc4c21)OCO3)NO
inactive | COc1ccc2c(c1)c1ncc3ccccc3c1n2CCCN1CCN(C)CC1

What follows are molecules tested on NCI-H2228 (assay: Antiproliferative activity against human NCI-H2228 cells assessed as inhibition of cell growth incubated for 96 hrs by MTT based ELISA). Conditions: NCI-H2228, 96 h.
Format: functional

Structure (SMILES) | IC50 [µM]
O=C(CCCn1c2cc3c(cc2c2[nH]c(=O)c4ccccc4c21)OCO3)NO | > 10
COc1ccc2c(c1)c1nc(Cl)c3ccccc3c1n2CCCN1CC[C@@H](O)C1 | > 10
COc1ccc2c(c1)c1nc(Cl)c3ccccc3c1n2CCCn1cnc(C)c1 | > 10
COc1ccc2c(c1)c1nc(Cl)c3ccccc3c1n2CCCn1cc(C)nc1C | > 10
COc1ccc2c(c1)c1nc(Cl)c3ccccc3c1n2CCCN1CCC[C@@H]1CO | > 10
COc1ccc2c(c1)c1nc(Cl)c3ccccc3c1n2CCCN1CCC[C@@H](O)C1 | > 10

Now from value to molecule:

IC50 [µM] | Structure (SMILES)
4.86 | CC(C)Oc1ccc2c(c1)c1ncc3ccccc3c1n2CCCC(=O)NO
1.84 | COc1ccc2c(c1)c1ncc3ccccc3c1n2CCCN1CCN(C)CC1
4.55 | COc1ccc2c3nc(Cl)c4ccccc4c3n(CCCC(=O)NO)c2c1

These molecules were tested on PC-3 (assay: Antiproliferative activity against human PC-3 cells assessed as inhibition of cell growth incubated for 96 hrs by MTT based ELISA). Conditions: PC-3, 96 h.
Format: functional

Structure (SMILES) | IC50 [µM]
O=C(CCCn1c2cc3c(cc2c2[nH]c(=O)c4ccccc4c21)OCO3)NO | 7.14
COc1ccc2c(c1)c1nc(Cl)c3ccccc3c1n2CCCN1CC[C@@H](O)C1 | > 10
COc1ccc2c(c1)c1nc(Cl)c3ccccc3c1n2CCCn1cnc(C)c1 | > 10
COc1ccc2c(c1)c1nc(Cl)c3ccccc3c1n2CCCn1cc(C)nc1C | > 10
COc1ccc2c(c1)c1nc(Cl)c3ccccc3c1n2CCCN1CCC[C@@H]1CO | > 10
COc1ccc2c(c1)c1nc(Cl)c3ccccc3c1n2CCCN1CCC[C@@H](O)C1 | > 10

The remaining lines, values ahead:

IC50 [µM] | Structure (SMILES)
2.57 | CC(C)Oc1ccc2c(c1)c1ncc3ccccc3c1n2CCCC(=O)NO
0.74 | COc1ccc2c(c1)c1ncc3ccccc3c1n2CCCN1CCN(C)CC1
3.7 | COc1ccc2c3nc(Cl)c4ccccc4c3n(CCCC(=O)NO)c2c1

These molecules were tested against T1, DNA topoisomerase 1 (Homo sapiens) (assay: Inhibition of Topoisomerase I (unknown origin) using pBR322 DNA as substrate at 200 uM incubated for 15 mins by EtBr staining based agarose gel electrophoresis method relative to control). Conditions: not given.

inhibition | Structure (SMILES)
> 95% | O=C(CCCn1c2cc3c(cc2c2[nH]c(=O)c4ccccc4c21)OCO3)NO
inactive | COc1ccc2c(c1)c1ncc3ccccc3c1n2CCCN1CCN(C)CC1

These molecules were tested on MCF7 (assay: Antiproliferative activity against human MCF7 cells assessed as inhibition of cell growth incubated for 96 hrs by MTT based ELISA). Conditions: MCF7, 96 h.
Format: functional

Structure (SMILES) | IC50 [µM]
O=C(CCCn1c2cc3c(cc2c2[nH]c(=O)c4ccccc4c21)OCO3)NO | 6.57
COc1ccc2c(c1)c1nc(Cl)c3ccccc3c1n2CCCN1CC[C@@H](O)C1 | > 10
COc1ccc2c(c1)c1nc(Cl)c3ccccc3c1n2CCCn1cnc(C)c1 | > 10
COc1ccc2c(c1)c1nc(Cl)c3ccccc3c1n2CCCn1cc(C)nc1C | > 10
COc1ccc2c(c1)c1nc(Cl)c3ccccc3c1n2CCCN1CCC[C@@H]1CO | > 10
COc1ccc2c(c1)c1nc(Cl)c3ccccc3c1n2CCCN1CCC[C@@H](O)C1 | > 10

Now from value to molecule:

IC50 [µM] | Structure (SMILES)
4.56 | CC(C)Oc1ccc2c(c1)c1ncc3ccccc3c1n2CCCC(=O)NO
1.12 | COc1ccc2c(c1)c1ncc3ccccc3c1n2CCCN1CCN(C)CC1
4.6 | COc1ccc2c3nc(Cl)c4ccccc4c3n(CCCC(=O)NO)c2c1
